71 compounds from ChEMBL document CHEMBL3507680, “University of Dundee, Gates Library screen for HepG2 cell viability” can be followed below.

The data set in a line: Human HepG2 cell viability assay in 384 well format. In kind it is toxicity, cell-based. Also noted: dose 125 nL, time 70.5 hour; concentration not given beside the values. The note with it: HepG2 cells, read-out: Inhibition.
Take `O=C(CN1CCOC(Cn2cccn2)C1)NCCc1cccs1` (stereo unspecified): the cytotoxicity at 70.5 h was -4.13%.

Regarding `Cc1ccc(N2CC[C@@H]3[C@@H](CO[C@H]3CNC(=O)c3ccco3)C2)nn1`, the cytotoxicity at 70.5 h is -1.79%.

On to `COc1ccccc1C1(CNc2ncc(S(N)(=O)=O)s2)CC1`, for which the cytotoxicity at 70.5 h is -6.5%. To `Cc1noc(C)c1C(=O)N1CC[C@H]2C[C@@H](c3ccncn3)O[C@@H]2C1` belongs -5.05%; to `CCC(C)N(Cc1c[nH]c(C)n1)Cc1ccccc1Cl` (stereo unspecified), -8.23%; to `CCn1ccnc1CN(C)c1cc(C2CCCNC2)nc(C)n1` (stereo unspecified), -1.8%. To `O=C(c1cncc2ccccc12)N1CCC[C@@H]1CO` belongs -11.6%; to `CC(=O)N(Cc1ccc(NCc2cnn(C(C)(C)C)c2)cc1)C(C)C`, -3.55%; to `COCc1cc(CN(C)C(=O)CCC(=O)Nc2cc(C)ccc2F)n[nH]1`, -6.52%.

As for `CCC(NC(=O)CCCNC(=O)OC)c1cc(F)ccc1F` (stereo unspecified), the cytotoxicity at 70.5 h is -3.13%. For `Cc1cnc2n(c1=O)CC(C(=O)NC1CC1)CS2` (stereo unspecified), the cytotoxicity at 70.5 h was 2.18%.

As to `CCNc1ncc(C(=O)NC2COC3(CCCC3)C2)cn1` (stereo unspecified), the cytotoxicity at 70.5 h was -3.75%. To `CN(Cc1cccc(OC(F)(F)F)c1)Cc1cnn(C)c1` belongs -12.4%. Then `O=C(Cc1ccsc1)N1C[C@@H]2COC[C@]2(COCc2cccnc2)C1`, with -0.0283%; and `COc1cc(C)ccc1C(=O)N1CCC2(CCC(=O)N(C(C)C)C2)CC1`, with -4.16%; and `NC(=O)c1csc(N2C[C@@H](CN3CCC(O)CC3)[C@@H](CO)C2)n1`, with -6.31%. Then `CC(C)c1nc(CN(C)S(=O)(=O)c2cccs2)cs1`, with 1.87%; and `Fc1cccnc1N1CCOCC2(CCCN(c3nncs3)C2)C1` (stereo unspecified), with -9.83%; and `CCS(=O)(=O)N1CC(c2nc(-c3cccs3)no2)C1`, with -2.02%. On to `CCOCCC(=O)N(CCC#N)c1ccc(C)c(C)c1`, for which the cytotoxicity at 70.5 h is -1.94%.

With `O=C1CC[C@H]2[C@H](CCN2c2ncc(F)cn2)N1c1cccnc1`, the cytotoxicity at 70.5 h is -6.96%.

Regarding `O=C(c1ccsc1)N1CCC2(CC1)COCCN(Cc1ccncc1)C2`, the cytotoxicity at 70.5 h is -7.46%. To `COc1cccc2c1ccn2CCNC(C)=O` belongs -16.2%; to `CC(C)c1cnc(CN(C)C2CCN(CCCc3cnn(C)c3)C2)o1` (stereo unspecified), 20.9%; to `CCNC(c1ccc(Br)cc1)c1cccnc1` (stereo unspecified), 1.53%. To `Cc1ncccc1C(=O)Nc1cccc2c1C(=O)NC2` belongs -2.21%; to `CC(C)(NC(=O)Cc1ccccc1F)C(C)(C)C(=O)O`, -0.854%. Then `O=C(Cc1cccs1)N1CCn2cc(Cn3cccn3)nc2C1`, with -13.4%; and `CCn1nnc2c1C(COCCN(C)C)CN(S(=O)(=O)CC)C2` (stereo unspecified), with -1.87%. With `Cc1cc(C(F)(F)F)nn1CCCNC(=O)C1CCCO1` (stereo unspecified), the cytotoxicity at 70.5 h was 16.3%.

For `COc1ccc(C)cc1CC(=O)NC(CC(=O)O)c1ccc(F)cc1` (stereo unspecified), the cytotoxicity at 70.5 h is -18.4%. As for `O=C(N1CCCCC1)N1CCN(CC(O)c2ccccc2)CC1` (stereo unspecified), the cytotoxicity at 70.5 h was -3.61%. On to `CC(NC(=O)CCc1nc(C(C)(C)C)no1)c1nnc2n1CCC2` (stereo unspecified), for which the cytotoxicity at 70.5 h is -7.28%.

With `CCn1nc(C)c2nnn(CC(=O)Nc3ccccc3F)c(=O)c21`, the cytotoxicity at 70.5 h is -4.52%. For the compound `COc1ccccc1CCNS(=O)(=O)N1CCOCC1`, the cytotoxicity at 70.5 h is -11.8%. To `O=C(NCCc1cnccn1)C1(N2CCCCC2)Cc2ccccc2C1` belongs -8.18%; to `COc1cc(CC(O)CO)c(OC)c2c1OCO2` (stereo unspecified), 30.2%. `Cc1cc(C)c(S(N)(=O)=O)cc1C(=O)NCCN1CCCCC1`: the cytotoxicity at 70.5 h is -16.1%. Then `Cn1cc(CN2CCCC3(CCCCN3S(C)(=O)=O)C2)cn1` (stereo unspecified), with -9.02%; and `Cc1ncsc1CN1Cc2cnn(C)c2C(COCC2CC2)C1` (stereo unspecified), with -1.88%; and `COCC(=O)Nc1ccc(C)cc1-c1nc(C2CC2)no1`, with -7.26%. To `COCc1nc(CN2CCOC(CN(C)c3cccnn3)C2)cs1` (stereo unspecified) belongs 2.04%. On to `CC(Cn1cncn1)NC(=O)N1CC2(CCCC2)c2ccccc21` (stereo unspecified), for which the cytotoxicity at 70.5 h was -1.39%.

Consider `N#Cc1ccc(F)c(CN(CC(=O)N2CCCC2)CC2CCCO2)c1` (stereo unspecified), for which the cytotoxicity at 70.5 h is 0.0703%. To `Cn1cc(C(=O)N2CCC(c3ncc[nH]3)CC2)cn1` belongs -17.5%. With `CC(C)n1ccnc1C1CCN(C(=O)C2COc3ccccc3O2)CC1` (stereo unspecified), the cytotoxicity at 70.5 h is -9.98%. To `CC(C)c1nc(S(=O)(=O)N(C)c2ccc(F)cc2)c[nH]1` belongs -7.45%. For `COCCN1CCC12CCN(C(=O)Cc1cccs1)C2` (stereo unspecified), the cytotoxicity at 70.5 h is -7.8%. For the compound `Cc1nc(C(C)(C)NC(=O)Nc2ccc(C#N)cc2)no1`, the cytotoxicity at 70.5 h is -4.52%.

As to `O=C([C@H]1C[C@H]2OCC[C@H]2N(Cc2ccc(F)cc2)C1)N1CCCCO1`, the cytotoxicity at 70.5 h was 20.6%. `CN(Cc1cc(C2CC2)[nH]n1)C(=O)C(c1cccnc1)N1CCCC1` (stereo unspecified): the cytotoxicity at 70.5 h is -3.32%. On to `COCCNC(=O)N1CCCCC1CNC(=O)Nc1ccccc1` (stereo unspecified), for which the cytotoxicity at 70.5 h is -3.88%. Then `CCn1cc(C(=O)N2CCCC3(CCC(=O)N(CCC(C)C)C3)C2)cn1` (stereo unspecified), with -5.07%. In the case of `O=C(NS(=O)(=O)c1cccc(C(F)(F)F)c1)c1cnsn1`, the cytotoxicity at 70.5 h is -5.69%. On to `Cc1csc(C2CCCN(C(=O)c3cnc4n[nH]c(C)c4c3)C2)n1` (stereo unspecified), for which the cytotoxicity at 70.5 h was -10.8%. Then `CCC(C)CN1CCC(n2cc(C3CCCCC3)nn2)CC1` (stereo unspecified), with 14.7%; and `CC(C)[C@H](Nc1nc(C2CCCC2)nc2c1cnn2C)C(N)=O`, with -12.3%.

In the case of `O=C(CCc1cccs1)N1CCC(N2CCNC2=O)CC1`, the cytotoxicity at 70.5 h is -0.95%. Then `CCn1nc(C)c(-c2cncn2Cc2ccccc2CN(C)C)c1C`, with -3.79%. On to `COc1cc(C)cc(C(C(=O)O)N(C)Cc2ccon2)c1OC` (stereo unspecified), for which the cytotoxicity at 70.5 h is -0.471%. As for `O=C(NCc1nc(C2CCCCC2)no1)C1CC(=O)N(C2CC2)C1` (stereo unspecified), the cytotoxicity at 70.5 h turned out to be 5.86%.

Turning to `CCc1n[nH]c(NC(=O)c2ccc(Cl)cn2)c1Br`, the cytotoxicity at 70.5 h is -2.17%. Then `COc1ccccc1C(NC(=O)C1CCCC1)c1noc(C)n1` (stereo unspecified), with 1.95%.

Turning to `CC(C)=CCN1CCN(Cc2nc3ccccc3[nH]2)[C@H]2CS(=O)(=O)C[C@H]21`, the cytotoxicity at 70.5 h was -8.69%. To `CC(NC(=O)NCC1(N2CCCCC2)CCCCC1)c1nncn1C` (stereo unspecified) belongs -20.6%; to `CCn1nc(C)c2nc(C(C)C)nc(NCCOC)c21`, -5.06%. To `Cc1nsc(C(=O)NCCc2ccc(F)cc2)n1` belongs -1.44%. As to `O=C1NCC2(CCCN(C(=O)Cn3nc4ccccc4n3)CC2)O1` (stereo unspecified), the cytotoxicity at 70.5 h is 29.9%.

As for `O=C(c1cc(C2CC2)[nH]n1)N1CCN(Cc2ccc(Cl)cc2)CC1`, the cytotoxicity at 70.5 h was 12.5%. To `O=S(=O)(NCC1(O)CCOc2ccccc21)c1ccc(Cl)s1` (stereo unspecified) belongs -6.65%. Regarding `CCOc1ncccc1CNS(=O)(=O)N1CCOCC1`, the cytotoxicity at 70.5 h came out at 15.2%.
